What was measured:
[1] = human gut metagenome, 24 h, 2 µM
[2] = human gut metagenome, 24 h, 2 µM; remark: listed apart in the source
[3] = human gut metagenome, 24 h, 2 µM; remark: listed apart in the source
[4] = human gut metagenome, 24 h, 2 µM; remark: listed apart in the source
[5] = (§1) The drug is tested on WLS-086 corresponding to human gut metagenome with ENA study accession number: PRJEB37062 and ENA sample accession number: ERS12561752 for biotransformation under anaerobic condition. The drug concentrations were measured over 9 timepoints collected between 0 and 24 hours of incubation by liquid-chromatography-coupled mass spectrometry (LC–MS); conditions: 2 µM
[6] = human gut metagenome, 24 h, 2 µM; remark: listed apart in the source
[7] = as §1, with “Z-017” for “WLS-086”, “mouse” for “human”, “ERS12561816” for “ERS12561752”; conditions: 2 µM
[8] = human gut metagenome, 24 h, 2 µM; remark: listed apart in the source
[9] = human gut metagenome, 24 h, 2 µM; remark: listed apart in the source
[10] = as §1, with “WLS-010” for “WLS-086”, “ERS12561743” for “ERS12561752”; conditions: 2 µM
[11] = human gut metagenome, 24 h, 2 µM; remark: listed apart in the source
[12] = as §1, with “Z-023” for “WLS-086”, “to” for “to human gut”, “ERS12561822” for “ERS12561752”; conditions: 2 µM
[13] = as §1, with “Z-020” for “WLS-086”, “rabbit” for “human”, “ERS12561819” for “ERS12561752”; conditions: 2 µM
[14] = as §1, with “Z-029” for “WLS-086”, “rat” for “human”, “ERS12561828” for “ERS12561752”; conditions: 2 µM
[15] = as §1, with “WLS-170” for “WLS-086”, “ERS12561762” for “ERS12561752”; conditions: 2 µM
[16] = as §1, with “WLS-082” for “WLS-086”, “ERS12561751” for “ERS12561752”; conditions: 2 µM
[17] = as §1, with “Z-022” for “WLS-086”, “mouse” for “human”, “ERS12561821” for “ERS12561752”; conditions: 2 µM
[18] = as §1, with “Z-014” for “WLS-086”, “rat” for “human”, “ERS12561814” for “ERS12561752”; conditions: 2 µM
[19] = as §1, with “Z-026” for “WLS-086”, “to” for “to human gut”, “ERS12561825” for “ERS12561752”; conditions: 2 µM
[20] = as §1, with “Z-012” for “WLS-086”, “to” for “to human gut”, “ERS12561812” for “ERS12561752”; conditions: 2 µM
Note: call rule not given here.

Row | SMILES | Bacterial Biotransformation [1] | Bacterial Biotransformation [2] | Bacterial Biotransformation [3] | Bacterial Biotransformation [4] | Bacterial Biotransformation [5] | Bacterial Biotransformation [6] | Bacterial Biotransformation [7] | Bacterial Biotransformation [8] | Bacterial Biotransformation [9] | Bacterial Biotransformation [10] | Bacterial Biotransformation [11] | Bacterial Biotransformation [12] | Bacterial Biotransformation [13] | Bacterial Biotransformation [14] | Bacterial Biotransformation [15] | Bacterial Biotransformation [16] | Bacterial Biotransformation [17] | Bacterial Biotransformation [18] | Bacterial Biotransformation [19] | Bacterial Biotransformation [20]
1 | CC(C)(C)NC(=O)[C@H]1CC[C@H]2[C@@H]3CC[C@H]4NC(=O)C=C[C@]4(C)[C@H]3CC[C@]12C [FINASTERIDE] | Compound metabolized | Compound metabolized | Compound metabolized | Compound metabolized | Compound metabolized | Compound metabolized | Compound NOT metabolized | Compound metabolized | Compound metabolized | Compound metabolized | Compound metabolized | Compound metabolized | Compound metabolized | Compound NOT metabolized | Compound metabolized | Compound metabolized | Compound metabolized | Compound NOT metabolized | Compound metabolized | Compound metabolized
2 | Nc1nnc(-c2cccc(Cl)c2Cl)c(N)n1 [LAMOTRIGINE] | Compound NOT metabolized | Compound NOT metabolized | Compound NOT metabolized | Compound metabolized | Compound metabolized | Compound NOT metabolized | Compound NOT metabolized | Compound NOT metabolized | Compound NOT metabolized | Compound NOT metabolized | Compound metabolized | Compound NOT metabolized | Compound NOT metabolized | Compound NOT metabolized | Compound metabolized | Compound NOT metabolized | Compound NOT metabolized | Compound NOT metabolized | Compound NOT metabolized | Compound NOT metabolized
3 | OC(c1cc(C(F)(F)F)nc2c(C(F)(F)F)cccc12)C1CCCCN1 (stereo not given) [MEFLOQUINE] | Compound metabolized | Compound metabolized | Compound NOT metabolized | Compound metabolized | Compound metabolized | Compound metabolized | Compound NOT metabolized | Compound NOT metabolized | Compound metabolized | Compound metabolized | Compound metabolized | Compound metabolized | Compound metabolized | Compound metabolized | Compound metabolized | Compound metabolized | Compound metabolized | Compound NOT metabolized | Compound metabolized | Compound NOT metabolized
4 | CC(=O)O[C@]1(C(C)=O)CC[C@H]2[C@@H]3C=C(C)C4=CC(=O)CC[C@]4(C)[C@H]3CC[C@@]21C [MEGESTROL ACETATE] | Compound metabolized | Compound metabolized | Compound metabolized | Compound metabolized | Compound metabolized | Compound metabolized | Compound metabolized | Compound metabolized | Compound metabolized | Compound metabolized | Compound metabolized | Compound NOT metabolized | Compound metabolized | Compound NOT metabolized | Compound metabolized | Compound metabolized | Compound NOT metabolized | Compound NOT metabolized | Compound metabolized | Compound metabolized

More lines, now with the values ahead:

Row | Bacterial Biotransformation [1] | Bacterial Biotransformation [2] | Bacterial Biotransformation [3] | Bacterial Biotransformation [4] | Bacterial Biotransformation [5] | Bacterial Biotransformation [6] | Bacterial Biotransformation [7] | Bacterial Biotransformation [8] | Bacterial Biotransformation [9] | Bacterial Biotransformation [10] | Bacterial Biotransformation [11] | Bacterial Biotransformation [12] | Bacterial Biotransformation [13] | Bacterial Biotransformation [14] | Bacterial Biotransformation [15] | Bacterial Biotransformation [16] | Bacterial Biotransformation [17] | Bacterial Biotransformation [18] | Bacterial Biotransformation [19] | Bacterial Biotransformation [20] | SMILES
5 | Compound NOT metabolized | Compound NOT metabolized | Compound NOT metabolized | Compound NOT metabolized | Compound NOT metabolized | Compound NOT metabolized | Compound NOT metabolized | Compound NOT metabolized | Compound NOT metabolized | Compound NOT metabolized | Compound NOT metabolized | Compound NOT metabolized | Compound NOT metabolized | Compound NOT metabolized | Compound NOT metabolized | Compound NOT metabolized | Compound NOT metabolized | Compound NOT metabolized | Compound NOT metabolized | Compound NOT metabolized | CC1Cc2ccccc2N1NC(=O)c1ccc(Cl)c(S(N)(=O)=O)c1 (stereo not given) [INDAPAMIDE]
6 | Compound metabolized | Compound metabolized | Compound metabolized | Compound metabolized | Compound metabolized | Compound metabolized | Compound NOT metabolized | Compound metabolized | Compound metabolized | Compound metabolized | Compound metabolized | Compound NOT metabolized | Compound metabolized | Compound NOT metabolized | Compound metabolized | Compound NOT metabolized | Compound NOT metabolized | Compound NOT metabolized | Compound NOT metabolized | Compound NOT metabolized | COc1ccc2c(c1)c(CC(=O)O)c(C)n2C(=O)c1ccc(Cl)cc1 [INDOMETHACIN]
7 | Compound NOT metabolized | Compound NOT metabolized | Compound NOT metabolized | Compound NOT metabolized | Compound metabolized | Compound NOT metabolized | Compound NOT metabolized | Compound NOT metabolized | Compound NOT metabolized | Compound NOT metabolized | Compound NOT metabolized | Compound metabolized | Compound NOT metabolized | Compound NOT metabolized | Compound NOT metabolized | Compound NOT metabolized | Compound metabolized | Compound NOT metabolized | Compound NOT metabolized | Compound NOT metabolized | CC(CCc1ccccc1)NCC(O)c1ccc(O)c(C(N)=O)c1 (stereo not given) [LABETALOL]
